The values below come from patent US20200055839A1 (priority 2017, published 2020).

In this experiment the test system is NL-RLuc virus. Nature of the experiment: Inhibition of HIV replication (NL-RLuc virus, luciferase readout in MT-2 cells). In kind it is cell-based. As to conditions: Human immunodeficiency virus 1, MT2, 120 h, MT-2 cells infected with NL-RLuc virus, 5 days of incubation, 10% FBS, at least 2 experiments. Put shortly:
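EC50 derived via median effect equation from at least 2 experiments, using luciferase expression as virus-growth readout. Replication-competent NL-RLuc reporter virus (nef partly replaced by Renilla luciferase) infected MT-2 cells with serial compound dilutions; 5-day incubation in RPMI 1640 plus 10% FBS.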

As to `CCCCNc1ncc(-c2cnc(C)c([C@H](OC(C)(C)C)C(=O)O)c2N2CCC(C)(C)CC2)cc1F` [Example 414, (S)-2-(tert-Butoxy)-2-(6′-(butylamino)-4-(4,4-dimethylpiperidin-1-yl)-5′-fluoro-6-methyl-[3,3′-bipyridin]-5-yl)acetic acid], a half-maximal response (EC50) required 3 nM.

For `COc1c(F)cc(-c2c(CN3CCC4(CCC4)CC3)nc(C)c([C@H](OC(C)(C)C)C(=O)O)c2N2CCC(C)(C)CC2)cc1F` [Example 194, (2S)-2-[6-({7-Azaspiro[3.5]nonan-7-yl}methyl)-5-(3,5-difluoro-4-methoxyphenyl)-4-(4,4-dimethylpiperidin-1-yl)-2-methylpyridin-3-yl]-2-(tert-butoxy)acetic acid], the midpoint of the response, the EC50, lay at 0.6 nM.

Turning to `Cc1nc(NCCN(C)C)c(-c2ccc(OCCc3ccc(F)cc3)cc2)c(N2CCC(C)(C)CC2)c1[C@H](OC(C)(C)C)C(=O)O` [Example 28, (S)-2-(tert-Butoxy)-2-(6-((2-(dimethylamino)ethyl)amino)-4-(4,4-dimethylpiperidin-1-yl)-5-(4-(4-fluorophenethoxy)phenyl)-2-methylpyridin-3-yl)acetic acid], it took 0.7 nM to reach a half-maximal effect (EC50).

On to `CCCOc1ccc(CCOc2ccc(-c3cnc(C)c([C@H](OC(C)(C)C)C(=O)O)c3N3CCC(C)(C)CC3)nc2)cc1` [Example 325, (2S)-2-(tert-butoxy)-2-[4′-(4,4-dimethylpiperidin-1-yl)-6′-methyl-5-[2-(4-propoxyphenyl)ethoxy]-[2,3′-bipyridine]-5′-yl]acetic acid], for which the EC50 (as a rule, the concentration needed to bring the measured effect to its halfway point) came out at 3 nM.

Turning to `Cc1cccc(-c2cnc(C)c([C@H](OC(C)(C)C)C(=O)O)c2N2CCC(C)(C)CC2)c1F` [Example 163, (2S)-2-(tert-Butoxy)-2-[4-(4,4-dimethylpiperidin-1-yl)-5-(2-fluoro-3-methylphenyl)-2-methylpyridin-3-yl]acetic acid], the EC50 worked out at 6 nM.

`C=Cc1nc(C)c(-c2ccc(OCCc3ccc(F)cc3)cc2)c(N2CCC(C)(C)CC2)c1[C@H](OC(C)(C)C)C(=O)O` [Example 1, (S)-2-(tert-Butoxy)-2-(4-(4,4-dimethylpiperidin-1-yl)-5-(4-(4-fluorophenethoxy)phenyl)-6-methyl-2-vinylpyridin-3-yl)acetic acid]: the EC50 was found to be 20 nM.

As to `Cc1nc(Nc2cc(F)ccn2)c(-c2ccc(OCCc3ccc(F)cc3)cc2)c(N2CCC(C)(C)CC2)c1[C@H](OC(C)(C)C)C(=O)O` [Example 81, (S)-2-(tert-Butoxy)-2-(4-(4,4-dimethylpiperidin-1-yl)-5-(4-(4-fluorophenethoxy)phenyl)-6-((4-fluoropyridin-2-yl)amino)-2-methylpyridin-3-yl)acetic acid], the EC50 is 11 nM.

Compound `Cc1nc(C(N)=O)c(-c2ccc(OCCc3ccc(F)cc3)cc2)c(N2CCC(C)(C)CC2)c1[C@H](OC(C)(C)C)C(=O)O` [Example 13, (S)-2-(tert-Butoxy)-2-(6-carbamoyl-4-(4,4-dimethylpiperidin-1-yl)-5-(4-(4-fluorophenethoxy)phenyl)-2-methylpyridin-3-yl)acetic acid] returned an EC50 of 10 nM.

Regarding `Cc1cn(-c2nc(C)c([C@H](OC(C)(C)C)C(=O)O)c(N3CCC(C)(C)CC3)c2-c2ccc(OCCc3ccc(F)cc3)cc2)c(C)n1` [Example 53, (S)-2-(tert-Butoxy)-2-(6-(2,4-dimethyl-1H-imidazol-1-yl)-4-(4,4-dimethylpiperidin-1-yl)-5-(4-(4-fluorophenethoxy)phenyl)-2-methylpyridin-3-yl)acetic acid], the EC50 is 3 nM.

The compound `Cc1ncc(-c2cnc(OCCC(C)C)c(F)c2)c(N2CCC(C)(C)CC2)c1[C@H](OC(C)(C)C)C(=O)O` [Example 368, (2S)-2-(tert-butoxy)-2-[4-(4,4-dimethylpiperidin-1-yl)-5′-fluoro-6-methyl-6′-(3-methylbutoxy)-[3,3′-bipyridine]-5-yl]acetic acid] returned an EC50 of 1 nM. This EC50 lies about 3-fold lower than the previous one.

The compound `COc1ccc(-c2cnc(C)c([C@H](OC(C)(C)C)C(=O)O)c2N2CCC(C)(C)CC2)c(F)c1F` [Example 149, (2S)-2-(tert-Butoxy)-2-[5-(2,3-difluoro-4-methoxyphenyl)-4-(4,4-dimethylpiperidin-1-yl)-2-methylpyridin-3-yl]acetic acid] gave an EC50 of 6 nM. This EC50 lies about 6-fold higher than the previous one.

The compound `Cc1nc(-n2ccnc2)c(-c2ccc(OCCc3ccc(F)cc3)cc2)c(N2CCC(C)(C)CC2)c1[C@H](OC(C)(C)C)C(=O)O` [Example 45, (S)-2-(tert-Butoxy)-2-(4-(4,4-dimethylpiperidin-1-yl)-5-(4-(4-fluorophenethoxy)phenyl)-6-(1H-imidazol-1-yl)-2-methylpyridin-3-yl)acetic acid] showed an EC50 of 4 nM.

The compound `Cc1nc(NCCN2CCN(C)CC2)c(-c2ccc(OCCc3ccc(F)cc3)cc2)c(N2CCC(C)(C)CC2)c1[C@H](OC(C)(C)C)C(=O)O` [Example 43, (S)-2-(tert-Butoxy)-2-(4-(4,4-dimethylpiperidin-1-yl)-5-(4-(4-fluorophenethoxy)phenyl)-2-methyl-6-((2-(4-methylpiperazin-1-yl)ethyl)amino)pyridin-3-yl)acetic acid] yielded an EC50 of 0.6 nM.

`Cc1cc(-c2c(N)nc(C)c([C@H](OC(C)(C)C)C(=O)O)c2N2CCC(C)(C)CC2)cc(C)c1OCCc1ccc(F)cc1` [Example 61, (S)-2-(6-Amino-4-(4,4-dimethylpiperidin-1-yl)-5-(4-(4-fluorophenethoxy)-3,5-dimethylphenyl)-2-methylpyridin-3-yl)-2-(tert-butoxy)acetic acid] showed an EC50 of 11 nM.

`CC1(C)CCN(c2c(-c3ccc(OCCc4ccc(F)cc4)c(F)c3)c(CN3CCC4(CCC4)CC3)nc(Cl)c2[C@H](OC(C)(C)C)C(=O)O)CC1` [Example 210, (S)-2-(6-((7-Azaspiro[3.5]nonan-7-yl)methyl)-2-chloro-4-(4,4-dimethylpiperidin-1-yl)-5-(3-fluoro-4-(4-fluorophenethoxy)phenyl)pyridin-3-yl)-2-(tert-butoxy)acetic acid] displayed an EC50 of 2 nM.

In turn, `Cc1nn(C)cc1-c1nc(C)c([C@H](OC(C)(C)C)C(=O)O)c(N2CCC(C)(C)CC2)c1-c1ccc(OCCc2ccc(F)cc2)cc1` [Example 37, (S)-2-(tert-Butoxy)-2-(6-(1,3-dimethyl-1H-pyrazol-4-yl)-4-(4,4-dimethylpiperidin-1-yl)-5-(4-(4-fluorophenethoxy)phenyl)-2-methylpyridin-3-yl)acetic acid] displayed an EC50 of 2 nM.

As to `Cc1nc(C(=O)NS(=O)(=O)C2CC2)c(-c2ccc(OCCc3ccc(F)cc3)cc2)c(N2CCC(C)(C)CC2)c1[C@H](OC(C)(C)C)C(=O)O` [Example 9, (S)-2-(tert-Butoxy)-2-(6-((cyclopropylsulfonyl)carbamoyl)-4-(4,4-dimethylpiperidin-1-yl)-5-(4-(4-fluorophenethoxy)phenyl)-2-methylpyridin-3-yl)acetic acid], the EC50 came to 380 nM.

Compound `Cc1ccnc(Nc2nc(C)c([C@H](OC(C)(C)C)C(=O)O)c(N3CCC(C)(C)CC3)c2-c2ccc(OCCc3ccc(F)cc3)cc2)c1` [Example 79, (S)-2-(tert-Butoxy)-2-(4-(4,4-dimethylpiperidin-1-yl)-5-(4-(4-fluorophenethoxy)phenyl)-2-methyl-6-((4-methylpyridin-2-yl)amino)pyridin-3-yl)acetic acid] came in with an EC50 of 6 nM.

`Cc1nc(N)c([C@H](OC(C)(C)C)C(=O)O)c(N2CCC(C)(C)CC2)c1-c1ccc(OCCc2ccc(F)cc2)cc1` [Example 2, (S)-2-(2-Amino-4-(4,4-dimethylpiperidin-1-yl)-5-(4-(4-fluorophenethoxy)phenyl)-6-methylpyridin-3-yl)-2-(tert-butoxy)acetic acid] showed an EC50 of 5 nM.

For `Cc1ncc(-c2ccc(OCCCc3ccccc3)cn2)c(N2CCC(C)(C)CC2)c1[C@H](OC(C)(C)C)C(=O)O` [Example 321, (2S)-2-(tert-butoxy)-2-[4′-(4,4-dimethylpiperidin-1-yl)-6′-methyl-5-(3-phenylpropoxy)-[2,3′-bipyridine]-5′-yl]acetic acid], it took 0.5 nM to reach a half-maximal effect (EC50).

As for `Cc1ncc(-c2ccc(OCCc3ccc(F)cc3)nc2F)c(N2CCC(C)(C)CC2)c1[C@H](OC(C)(C)C)C(=O)O` (single isomer, unassigned) [Example 263], the EC50 stood at 3 nM.

In turn, `Cc1nc(NCCCN2CCCCC2)c(-c2ccc(OCCc3ccc(F)cc3)cc2)c(N2CCC(C)(C)CC2)c1[C@H](OC(C)(C)C)C(=O)O` [Example 35, (S)-2-(tert-Butoxy)-2-(4-(4,4-dimethylpiperidin-1-yl)-5-(4-(4-fluorophenethoxy)phenyl)-2-methyl-6-((3-(piperidin-1-yl)propyl)amino)pyridin-3-yl)acetic acid] displayed an EC50 of 1 nM.

As for `COc1c(F)cc(-c2c(CN(C)C)nc(C)c([C@H](OC(C)(C)C)C(=O)O)c2N2CCC(C)(C)CC2)cc1F` [Example 197, (2S)-2-(tert-Butoxy)-2-[5-(3,5-difluoro-4-methoxyphenyl)-6-[(dimethylamino)methyl]-4-(4,4-dimethylpiperidin-1-yl)-2-methylpyridin-3-yl]acetic acid], the EC50 was found to be 11 nM. This EC50 is about 11-fold higher than that of the compound before.

Turning to `Cc1ncc(-c2cnc(O[C@H](C)c3ccccc3)c(F)c2)c(N2CCC(C)(C)CC2)c1[C@H](OC(C)(C)C)C(=O)O` [Example 396, (2S)-2-(tert-butoxy)-2-[4-(4,4-dimethylpiperidin-1-yl)-5′-fluoro-6-methyl-6′-[(1R)-1-phenylethoxy]-[3,3′-bipyridine]-5-yl]acetic acid], the response was half-maximal at 2 nM (EC50).

Compound `Cc1ncc(-c2cnc(O[C@@H](C)Cc3ccccc3)c(F)c2)c(N2CCC(C)(C)CC2)c1[C@H](OC(C)(C)C)C(=O)O` [Example 379, (2S)-2-(tert-butoxy)-2-[4-(4,4-dimethylpiperidin-1-yl)-5′-fluoro-6-methyl-6′-{[(2S)-1-phenylpropan-2-yl]oxy}-[3,3′-bipyridine]-5-yl]acetic acid] showed a concentration giving a half-maximal response (EC50) of 2 nM.

As to `Cc1ncc(-c2ccc(OCCc3ccc(F)cc3)cn2)c(N2CCC(C)(C)CC2)c1[C@H](OC(C)C)C(=O)O` [Example 271, (S)-2-(4′-(4,4-Dimethylpiperidin-1-yl)-5-(4-fluorophenethoxy)-6′-methyl-[2, 3′-bipyridin]-5′-yl)-2-isopropoxyacetic acid], the midpoint of the response, the EC50, lay at 3 nM.
